From US6610677B2, “Pyrazole compounds useful as protein kinase inhibitors” (Vertex Pharmaceuticals Incorporated, priority 2000, dated 2003)

Molecular target: T1, GSK-3β (AA 1-420) (Homo sapiens, UniProt P49841)
T1 construct: GSK-3β (AA 1-420)
Experiment: Ki determination for the inhibition of GSK-3 (coupled enzyme system)
Type: biochemical
Conditions: 20 μM ATP, 300 μM peptide, 20 nM GSK-3β, 30° C
Procedure: Compounds were screened for their ability to inhibit GSK-3β (AA 1-420) activity using a standard coupled enzyme system (Fox et al. (1998) Protein Sci. 7, 2249). Reactions were carried out in a solution containing 100 mM HEPES (pH 7.5), 10 mM MgCl2, 25 mM NaCl, 300 μM NADH, 1 mM DTT and 1.5% DMSO. Final substrate concentrations in the assay were 20 μM ATP (Sigma Chemicals, St Louis, Mo.) and 300 μM peptide (HSSPHQS(PO3H2)EDEEE, American Peptide, Sunnyvale, Calif.). Reactions were carried out at 30° C. and 20 nM GSK-3β. Final concentrations of the components of the coupled enzyme system were 2.5 mM phosphoenolpyruvate, 300 μM NADH, 30 μg/ml pyruvate kinase and 10 μg/ml lactate dehydrogenase.
An assay stock buffer solution was prepared containing all of the reagents listed above with the exception of ATP and the test compound of interest. The assay stock buffer solution (175 μl) was incubated in a 96 well plate with 5 μl of the test compound of interest at final concentrations spanning 0.002 μM to 30 μM at 30° C. for 10 min. Typically, a 12 point titration was conducted by preparing serial dilutions (from 10 mM compound stocks) with DMSO of the test compounds in daughter plates. The reaction was initiated by the addition of 20 μl of ATP (final concentration 20 μM). Rates of reaction were obtained using a Molecular Devices Spectramax plate reader (Sunnyvale, Calif.) over 10 min at 30° C. The Ki values were determined from the rate data as a function of inhibitor concentration.

T1 sequence (P49841 whole entry, the tested form may be a part): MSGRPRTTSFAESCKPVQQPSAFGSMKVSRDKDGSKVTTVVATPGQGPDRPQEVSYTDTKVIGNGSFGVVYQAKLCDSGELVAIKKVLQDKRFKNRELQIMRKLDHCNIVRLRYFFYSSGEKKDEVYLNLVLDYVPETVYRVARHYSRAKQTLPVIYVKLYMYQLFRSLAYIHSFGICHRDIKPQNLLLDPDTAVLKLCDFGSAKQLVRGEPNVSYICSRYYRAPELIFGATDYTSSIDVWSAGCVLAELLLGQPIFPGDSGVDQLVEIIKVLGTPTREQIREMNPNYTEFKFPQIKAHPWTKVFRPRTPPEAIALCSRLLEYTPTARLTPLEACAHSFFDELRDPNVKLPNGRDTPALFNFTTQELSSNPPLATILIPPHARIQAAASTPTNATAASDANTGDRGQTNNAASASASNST

Compound	Ki [nM]
Fc1ccc2c(Nc3nc(-c4ccccc4C(F)(F)F)nc4ccccc34)n[nH]c2c1 [II-124, (6-Fluoro-1H-indazol-3-yl)-[2-(2-trifluoromethyl-phenyl)-quinazolin-4-yl]-amine]	< 100
FC(F)(F)c1ccccc1-c1nc(Nc2n[nH]c3cccc(-n4cccc4)c23)c2ccccc2n1 [II-72, (4-Pyrrol-1-yl-1H-indazol-3-yl)-[2-(2-trifluoromethyl-phenyl)-quinazolin-4-yl]-amine]	1000 to 20000
Fc1cc(F)c2[nH]nc(Nc3nc(-c4ccccc4C(F)(F)F)cc4ccccc34)c2c1 [Compound V-3, (5,7-Difluoro-1H-indazol-3-yl)-[3-(2-trifluoromethyl-phenyl)-isoquinolin-1-yl]-amine]	< 100
Fc1cc(F)c2[nH]nc(Nc3nc(-c4ccccc4Cl)nc4c3CCCCC4)c2c1 [II-6, [2-(2-Chloro-phenyl)-6,7,8,9-tetrahydro-5H-cycloheptapyrimidin-4-yl]-(5,7-difluoro-1H-indazol-3-yl)-amine]	< 100
Cc1cc(Nc2nc(-c3cccc4ccccc34)nc3ccccc23)n[nH]1 [II-208, (5-Methyl-2H-pyrazol-3-yl)-[2-(2-naphthyl-1-yl)-quinazolin-4-yl]-amine]	< 100
Fc1cccc2c(Nc3nc(-c4ccccc4Cl)nc4c3CCC4)n[nH]c12 [II-117, [2-(2-Chloro-phenyl)-6,7-dihydro-5H-cyclopentapyrimidin-4-yl]-(7-fluoro-1H-indazol-3-yl)-amine]	< 100
FC(F)(F)c1ccccc1-c1nc(Nc2n[nH]cc2-c2cccs2)c2ccccc2n1 [II-47, [4-(Thiophen-2-yl)-2H-pyrazol-3-yl]-[2-(2-trifluoromethylphenyl)-quinazolin-4-yl]-amine]	1000 to 20000
FC(F)(F)c1ccccc1-c1nc(Nc2cc(-c3ccccc3)[nH]n2)c2ccccc2n1 [II-50, (5-Phenyl-2H-pyrazol-3-yl)-[2-(2-trifluoromethylphenyl)-quinazolin-4-yl]-amine]	100 to 1000
Fc1cc(F)c2[nH]nc(Nc3nc(-c4ccccc4C(F)(F)F)nc4c3CCCCC4)c2c1 [II-11, (5,7-difluoro-1H-indazol-3-yl)-[2-(2-trifluoromethyl-phenyl)-6,7,8,9-tetrahydro-5H-cycloheptapyrimidin-4-yl]-amine]	< 100
FC(F)(F)c1ccccc1-c1nc(Nc2n[nH]c3cccnc23)c2ccccc2n1 [II-98, (1H-Pyrazolo[4,3-b]pyridin-3-yl)-[2-(2-trifluoromethyl-phenyl)-quinazolin-4-yl]-amine]	1000 to 20000
FC(F)(F)c1ccccc1-c1nc(Nc2n[nH]cc2-c2ccccc2)c2ccccc2n1 [II-48, (4-Phenyl-2H-pyrazol-3-yl)-[2-(2-trifluoromethylphenyl)-quinazolin-4-yl]-amine]	1000 to 20000
FC(F)(F)c1ccccc1-c1nc(Nc2n[nH]c3ccccc23)cc(-c2ccccn2)n1 [II-22, (1H-Indazol-3-yl)-[6-(pyridin-2-yl)-2-(2-trifluoromethyl-phenyl)-pyrimidin-4-yl]-amine]	100 to 1000
Fc1cc(F)c2[nH]nc(Nc3nc(-c4ccc(Cl)cc4Cl)nc4ccccc34)c2c1 [II-87, [2-(2,4-Dichloro-phenyl)-quinazolin-4-yl]-(5,7-Difluoro-1H-indazol-3-yl)-amine]	< 100
Cc1nc(-c2ccc(Cl)cc2Cl)nc(Nc2n[nH]c3ccccc23)c1C [II-32, [2-(2,4-Dichlorophenyl)-5,6-dimethyl-pyrimidin-4-yl]-(1H-indazol-3-yl)-amine]	100 to 1000
Fc1ccc(-c2nc(Nc3n[nH]c4c(F)cc(F)cc34)c3ccccc3n2)c(C(F)(F)F)c1 [II-84, (5,7-Difluoro-1H-indazol-3-yl)-[2-(4-fluoro-2-trifluoromethyl-phenyl)-quinazolin-4-yl]-amine]	< 100
Fc1c(C(F)(F)F)ccc2c(Nc3nc(-c4ccccc4C(F)(F)F)nc4ccccc34)n[nH]c12 [II-81, (7-Fluoro-6-trifluoromethyl-1H-indazol-3-yl)-[2-(2-trifluoromethyl-phenyl)-quinazolin-4-yl]-amine]	< 100
Fc1cc(F)c2[nH]nc(Nc3nc(-c4ccccc4C(F)(F)F)nc4c3CCCC4)c2c1 [II-9, (5,7-Difluoro-1H-indazol-3-yl)-[2-(2-trifluoromethyl-phenyl)-5,6,7,8-tetrahydroquinazolin-4-yl]-amine]	< 100
Fc1ccc2[nH]nc(Nc3nc(-c4ccccc4C(F)(F)F)nc4c3CCCCC4)c2c1 [II-15, (5-Fluoro-1H-indazol-3-yl)-[2-(2-trifluoromethyl-phenyl)-6,7,8,9-tetrahydro-5H-cycloheptapyrimidin-4-yl]-amine]	< 100
Clc1cccc(Cl)c1-c1nc(Nc2n[nH]c3ccccc23)c2ccccc2n1 [II-66, [2-(2,6-Dichloro-phenyl)-guinazolin-4-yl]-(1H-indazol-3-yl)-amine]	< 100
FC(F)(F)c1ccccc1-c1nc(Nc2n[nH]c3c2CCCC3)c2ccccc2n1 [II-97, (4,5,6,7-Tetrahydro-1H-indazol-3-yl)-[2-(2-trifluoromethyl-phenyl)-quinazolin-4-yl]-amine]	100 to 1000
FC(F)(F)c1ccccc1-c1nc2c(c(Nc3n[nH]c4ccccc34)n1)CCCCC2 [II-13, (1H-Indazol-3-yl)-[2-(2-trifluoromethyl-phenyl)-6,7,8,9-tetrahydro-5H-cycloheptapyrimidin-4-yl]-amine]	< 100
Fc1cc(F)c2[nH]nc(Nc3nc(-c4cc(C(F)(F)F)ccc4Cl)nc4ccccc34)c2c1 [II-88, [2-(2-Chloro-5-trifluoromethyl-phenyl)-quinazolin-4-yl]-(5,7-Difluoro-1H-indazol-3-yl)-amine]	< 100
Fc1cccc2c(Nc3nc(-c4ccccc4Cl)nc4c3CCCCC4)n[nH]c12 [II-4, [2-(2-Chloro-phenyl)-6,7,8,9-tetrahydro-5H-cycloheptapyrimidin-4-yl]-(7-fluoro-1H-indazol-3-yl)-amine]	< 100
Fc1cc(F)c2[nH]nc(Nc3nc(-c4ccccc4Br)nc4ccccc34)c2c1 [II-85, [2-(2-Bromo-phenyl)-quinazolin-4-yl]-(5,7-difluoro-1H-indazol-3-yl)-amine]	< 100
Fc1cccc2c(Nc3nc(-c4ccccc4C(F)(F)F)nc4c3CCCCC4)n[nH]c12 [II-14, (7-Fluoro-1H-indazol-3-yl)-[2-(2-trifluoromethyl-phenyl)-6,7,8,9-tetrahydro-5H-cycloheptapyrimidin-4-yl]-amine]	< 100
FC(F)(F)c1ccccc1-c1nc(Nc2n[nH]c(-c3ccccc3)c2-c2ccccc2)c2ccccc2n1 [II-51, (4,5-Diphenyl-2H-pyrazol-3-yl)-[2-(2-trifluoromethylphenyl)-quinazolin-4-yl]-amine]	1000 to 20000

Further lines, results first:

Ki [nM]	Compound
100 to 1000	O=C(NC1CC1)c1cc(Nc2nc(-c3ccccc3)nc3ccccc23)[nH]n1 [III-90, (5-Cyclopropylcarbamoyl-2H-pyrazol-3-yl)-(2-phenyl-quinazolin-4-yl)-amine]
< 100	Cc1cc(Nc2nc(-c3ccsc3)nc3ccccc23)[nH]n1 [III-62, (5-Methyl-2H-pyrazol-3-yl)-(2-thiophen-3-yl-quinazolin-4-yl)-amine]
< 100	Fc1cc(F)c2n[nH]c(Nc3nc(-c4ccccc4)nc4ccccc34)c2c1 [III-131, (5,7-Difluoro-1H-indazol-3-yl)-(2-phenyl-quinazolin-4-yl)-amine]
1000 to 20000	CC1CCCCN1c1nc(Nc2n[nH]c3ccccc23)c2ccccc2n1 (stereo not shown) [III-146]
1000 to 20000	O=c1cc2[nH]nc(Nc3nc(-c4ccccc4)nc4ccccc34)c2nn1-c1ccc(Oc2ccccc2)cc1 [III-139, [6-Oxo-5-(4-Phenoxy-phenyl)-5,6-dihydro-1H-pyrazolo[4,3-c]pyridazin-3-yl]-(2-phenyl-quinazolin-4-yl)-amine]
1000 to 20000	CSc1n[nH]c(Nc2nc(-c3ccccc3C(F)(F)F)nc3ccccc23)n1 [IX-156, (5-Methylsulfanyl-2H-[1,2,4]triazol-3-yl)-[2-(2-trifluoromethylphenyl)-quinazolin-4-yl]-amine]
1000 to 20000	c1ccc2c(Nc3[nH]nc4ccccc34)nc(N3CCCCC3)nc2c1 [III-143, (1H-Indazol-3-yl)-(2-piperidin-1-yl-quinazolin-4-yl)-amine]
1000 to 20000	Cc1ccc(NC(=O)c2cc(Nc3nc(-c4ccccc4)nc4ccccc34)[nH]n2)cc1 [III-95, (2-Phenyl-quinazolin-4-yl)-(5-p-tolylcarbamoyl-2H-pyrazol-3-yl)-amine]
1000 to 20000	CC(C)NC(=O)c1cc(Nc2nc(-c3ccccc3)nc3ccccc23)[nH]n1 [III-81]
1000 to 20000	NC(=O)c1cc(Nc2nc(-c3ccccc3)nc3ccccc23)[nH]n1 [III-100, (5-Carbamoyl-2H-pyrazol-3-yl)-(2-phenyl-quinazolin-4-yl)-amine]
100 to 1000	COc1cccc(-n2nc3c(Nc4nc(-c5ccccc5)nc5ccccc45)n[nH]c3cc2=O)c1 [III-134, [5-(3-Methoxy-phenyl)-6-oxo-5,6-dihydro-1H-pyrazolo[4,3-c]pyridazin-3-yl]-(2-phenyl-quinazolin-4-yl)-amine]
